Reference: ChEMBL document CHEMBL1909046, “DrugMatrix in vitro pharmacology data”

Tests used:
[1] = molecular target: Beta-3 adrenergic receptor (Homo sapiens, UniProt P13945); assay: DRUGMATRIX: Adrenergic beta3 radioligand binding (ligand: [125I] Cyanopindolol); assay type: cell membranes, HEK293, Membrane; conditions: hek293; Not Active = under 50% inhibition at 10 µM
Endothelin-1 receptor = molecular target: T1, Endothelin-1 receptor (Homo sapiens, UniProt P25101); assay type: cell membranes, Membrane; conditions: cho-k1; note: in other assays of this panel Not Active means under 50% inhibition at 10 µM
T1 sequence (P25101 whole entry): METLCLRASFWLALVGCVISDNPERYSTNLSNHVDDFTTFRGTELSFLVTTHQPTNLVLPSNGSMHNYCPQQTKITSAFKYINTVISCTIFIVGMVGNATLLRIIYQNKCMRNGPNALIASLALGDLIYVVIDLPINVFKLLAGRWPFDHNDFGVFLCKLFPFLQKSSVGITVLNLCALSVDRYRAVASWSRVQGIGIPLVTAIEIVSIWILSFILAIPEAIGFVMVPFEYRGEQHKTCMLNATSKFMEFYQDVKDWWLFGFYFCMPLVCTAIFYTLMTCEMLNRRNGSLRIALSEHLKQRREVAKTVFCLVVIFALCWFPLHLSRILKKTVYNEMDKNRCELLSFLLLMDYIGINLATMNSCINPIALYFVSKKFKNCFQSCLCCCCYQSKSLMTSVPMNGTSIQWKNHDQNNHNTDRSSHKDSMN

[2] = DRUGMATRIX: Glutamate, NMDA, Phencyclidine radioligand binding (ligand: [3H] TCP); assay type: cell membranes, Rattus norvegicus, Wistar, Cerebral cortex, Membrane; conditions: Not Active = under 50% inhibition at 10 µM
[3] = DRUGMATRIX: Phorbol Ester radioligand binding (ligand: [3H] PDBu); assay type: cell membranes, Mus musculus, ICR, Brain, Membrane; conditions: Not Active = under 50% inhibition at 10 µM
[4] = DRUGMATRIX: Platelet-Derived Growth Factor (PDGF) radioligand binding (ligand: [125I] PDGF); assay type: cell-based; conditions: nih3t3; Not Active = under 50% inhibition at 10 µM
Interstitial collagenase = molecular target: T2, Interstitial collagenase (Homo sapiens, UniProt P03956); assay: biochemical; assay type: tissue-based, Rheumatoid synovial fibroblasts;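 note: MMP-1 enzyme inhibition assay using a peptide substrate; in other assays of this panel Not Active means under 50% inhibition at 10 µM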
T2 sequence (P03956 whole entry): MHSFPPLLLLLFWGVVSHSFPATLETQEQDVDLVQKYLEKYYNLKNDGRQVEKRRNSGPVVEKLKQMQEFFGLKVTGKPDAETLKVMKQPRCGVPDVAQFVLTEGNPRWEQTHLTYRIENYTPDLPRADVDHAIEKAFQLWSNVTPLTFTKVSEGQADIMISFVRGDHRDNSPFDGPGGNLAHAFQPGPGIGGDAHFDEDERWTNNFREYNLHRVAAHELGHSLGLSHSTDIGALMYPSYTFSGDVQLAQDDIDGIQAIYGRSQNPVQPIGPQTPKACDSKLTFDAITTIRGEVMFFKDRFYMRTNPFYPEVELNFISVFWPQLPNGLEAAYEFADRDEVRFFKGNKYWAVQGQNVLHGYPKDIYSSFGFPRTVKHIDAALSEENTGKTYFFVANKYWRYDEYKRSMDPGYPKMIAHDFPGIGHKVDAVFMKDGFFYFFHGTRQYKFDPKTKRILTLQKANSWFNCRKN

Estrogen receptor = molecular target: T3, Estrogen receptor (Homo sapiens, UniProt P03372); conditions: sf9; note: in other assays of this panel Not Active means under 50% inhibition at 10 µM
T3 sequence (P03372 whole entry): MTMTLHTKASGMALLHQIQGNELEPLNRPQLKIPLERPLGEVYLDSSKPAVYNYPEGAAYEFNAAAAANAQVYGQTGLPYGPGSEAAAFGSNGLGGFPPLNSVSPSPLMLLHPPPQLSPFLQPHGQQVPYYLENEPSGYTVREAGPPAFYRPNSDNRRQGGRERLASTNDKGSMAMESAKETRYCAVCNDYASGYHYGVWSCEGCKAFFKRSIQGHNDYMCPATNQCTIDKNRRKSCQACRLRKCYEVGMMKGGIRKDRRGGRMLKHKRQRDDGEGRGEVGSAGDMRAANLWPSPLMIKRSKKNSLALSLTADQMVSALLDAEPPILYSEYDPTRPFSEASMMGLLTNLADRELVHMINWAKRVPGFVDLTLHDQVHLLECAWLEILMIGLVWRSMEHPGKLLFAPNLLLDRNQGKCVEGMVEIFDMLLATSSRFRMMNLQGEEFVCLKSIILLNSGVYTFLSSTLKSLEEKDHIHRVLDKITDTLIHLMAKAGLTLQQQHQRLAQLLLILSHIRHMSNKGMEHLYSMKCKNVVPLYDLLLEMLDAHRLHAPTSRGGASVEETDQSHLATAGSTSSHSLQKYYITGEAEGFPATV

Sequence of Beta-3 adrenergic receptor (P13945 whole entry): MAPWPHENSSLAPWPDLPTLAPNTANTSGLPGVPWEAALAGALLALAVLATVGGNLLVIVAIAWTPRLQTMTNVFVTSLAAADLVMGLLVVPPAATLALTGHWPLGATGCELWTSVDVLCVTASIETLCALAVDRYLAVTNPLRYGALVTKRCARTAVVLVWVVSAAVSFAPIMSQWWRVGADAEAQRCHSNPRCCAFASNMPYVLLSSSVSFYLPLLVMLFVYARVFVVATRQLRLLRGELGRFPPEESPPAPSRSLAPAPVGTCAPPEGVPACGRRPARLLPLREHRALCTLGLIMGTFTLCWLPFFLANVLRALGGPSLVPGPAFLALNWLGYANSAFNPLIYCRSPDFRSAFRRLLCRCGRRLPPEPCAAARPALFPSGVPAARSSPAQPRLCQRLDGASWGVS

Row | Molecule | IC50 [1] | IC50 (Endothelin-1 receptor) | IC50 [2] | Ki [2] | IC50 [3] | Ki [3] | IC50 [4] | Ki [4] | IC50 (Interstitial collagenase) | IC50 (Estrogen receptor) | Ki [1] | Ki (Endothelin-1 receptor) | Ki (Interstitial collagenase) | Ki (Estrogen receptor) | IC50 (Endothelin-1 receptor; read-out: IC50) | Ki (Endothelin-1 receptor; read-out: Ki)
1 | CC(C)c1cccc(C(C)C)c1O [PROPOFOL] | Not Active | Not Active | Not Active | Not Active | Not Active | Not Active | Not Active | Not Active | Not Active | Not Active | – | – | – | – | – | –
2 | Oc1cccc(O)c1O [PYROGALLOL] | Not Active | Not Active | Not Active | Not Active | Not Active | Not Active | Not Active | Not Active | Not Active | Not Active | – | – | – | – | – | –
3 | AURANOFIN | Not Active | Not Active | Not Active | Not Active | Not Active | Not Active | Not Active | Not Active | Not Active | Not Active | Not Active | Not Active | Not Active | Not Active | – | –
4 | GADOPENTETATE DIMEGLUMINE | Not Active | Not Active | Not Active | Not Active | Not Active | Not Active | Not Active | Not Active | Not Active | Not Active | Not Active | Not Active | Not Active | Not Active | – | –
5 | GENTAMICIN | Not Active | Not Active | Not Active | Not Active | Not Active | Not Active | Not Active | Not Active | Not Active | Not Active | Not Active | Not Active | Not Active | Not Active | – | –
6 | GRAMICIDIN | Not Active | – | Not Active | Not Active | Not Active | Not Active | Not Active | Not Active | Not Active | Not Active | Not Active | – | Not Active | Not Active | 2980 nM | 1840 nM
7 | NYSTATIN | Not Active | Not Active | Not Active | Not Active | Not Active | Not Active | Not Active | Not Active | Not Active | Not Active | Not Active | Not Active | Not Active | Not Active | – | –
